Literature values as cited in patent US20250049817A1, “JAK INHIBITOR WITH A VITAMIN D ANALOG FOR TREATMENT OF SKIN DISEASES” (INCYTE CORPORATION, priority 2020, published 2025).

Legend:
[1] = system: T cells in psoriasis lesions; details: psoriasis patients, topical treatment, skin biopsies; cited from earlier work
[2] = system: keratinocyte cell line; details: concentration-dependent; read-out: IC50 for decreasing keratinocyte cell line proliferation; cited from earlier work

For `C=C1/C(=C\C=C2/CCC[C@]3(C)[C@@H]([C@H](C)/C=C/[C@@H](O)C4CC4)CC[C@@H]23)C[C@@H](O)C[C@@H]1O` [calcipotriol], the “CD8(+) IL-17(+) T cells” value [1] is given as “significant decrease”, the “frequency of IL-22(+) or IFN-γ(+) cells in psoriasis lesions” value [1] is given as “no changes” and the IC50 [2] is given as 10 to 100 nM.
